# Patent US8071625B2, “Certain chemical entities, compositions, and methods” (Cytokinetics, Inc., priority 2006, dated 2011)
# pIC50: −log10 of the molar value.
# Biological target: T1, crosslinked smooth muscle actomyosin (chicken gizzard smooth muscle myosin subfragment-1 crosslinked to cardiac or skeletal actin) (Gallus gallus, UniProt P10587)
# T1 construct: chicken gizzard smooth muscle myosin subfragment-1; from tissue; host or cells: chicken gizzard
# Test: Lead optimization pyruvate kinase/horseradish peroxidase/pyruvate oxidase-coupled ATPase assay (compound dose response)
# Format: biochemical
# Details: read-out: IC50 Arithmetic Mean
# Procedure: Screening assays were performed using a pyruvate kinase and lactate dehydrogenase-coupled ATPase assay containing the following reagents: Potassium PIPES (50 mM), MgCl2 (3 mM), KCl (100 mM), ATP (0.15 mM), DTT (1 mM), BSA (0.1 mg/ml), NADH (0.5 mM), PEP (1.5 mM), pyruvate kinase (4 U/ml), lactate dehydrogenase (8 U/ml), and antifoam (50 ppm) (concentrations expressed are final assay concentrations). The pH was adjusted to 6.80 at 22° C. by addition of potassium hydroxide. Lead optimization assays were performed with a more sensitive pyruvate kinase/horseradish peroxidase/pyruvate oxidase-coupled ATPase assay containing the following reagents: Potassium PIPES (12 mM), MgCl2 (2 mM), KCl (100 mM), ATP (0.15 mM), BSA (0.05 mg/ml), potassium phosphate (2 mM), amplex red (0.1 mM), PEP (0.1 mM), pyruvate kinase (4 U/ml), horseradish peroxidase (0.5 U/ml), pyruvate oxidase (0.5 U/ml), and antifoam (50 ppm) (concentrations expressed are final assay concentrations). The pH was adjusted to 7.00 at 22° C. by addition of potassium hydroxide.
# The protein components specific to this assay are chicken gizzard smooth muscle myosin subfragment-1 that has been chemically crosslinked to either cardiac or skeletal actin using an excess of 1-Ethyl-3-[3-dimethylaminopropyl]carbodiimide hydrochloride and N-hydroxysuccinimide. The exact concentration of the crosslinked smooth muscle myosin in the assay is determined empirically, by titration to achieve a desired rate of ATP hydrolysis. The concentration varies between protein preparations due to variations in the fraction of active molecules in each preparation.
# Compound dose response assays are performed by first preparing a dilution series of test compound, each with an assay mixture containing potassium PIPES, MgCl2, KCl, ATP, BSA, potassium phosphate, amplex red, PEP, crosslinked smooth muscle actomyosin (subfragment-1), antifoam, and water. The assay is started by adding an equal volume of solution containing potassium Pipes, MgCl2, KCl, BSA, potassium phosphate, pyruvate kinase, horseradish peroxidase, pyruvate oxidase, antifoam, and water. ATP hydrolysis is monitored by measuring the fluorescence of amplex red (excitation at 480 nm, emission at 615 nm). The resulting dose response curve is fit by the 4 parameter equation y=Bottom+((Top-Bottom)/(1+((IC50/X)^Hill))). The IC50 is defined as the concentration at which ATPase activity is midway between the top and bottom of the dose response curve.
row,SMILES,pIC50
1,CCc1ccc(NC(=O)OCC2(CC(=O)NCc3ccccc3Cl)CCN(C(=O)CN)CC2)cc1 [2-(1-(2-aminoacetyl)-4-{[N-(4-ethylphenyl)carbamoyloxy]methyl}(4-piperidyl))-N-[(2-chlorophenyl)methyl]acetamide],5.43
2,CCc1ccc(NC(=O)OCC(C)(NC(=O)CN)C(=O)NCc2ccccc2Cl)cc1 (stereo not drawn) [2-(2-aminoacetylamino)-N-[(2-chlorophenyl)methyl]-3-[N-(4-ethylphenyl)carbamoyloxy]-2-methylpropanamide],5.40
3,CCc1ccc(NC(=O)OCCC(NC(=O)CN)C(=O)NCc2ccccc2Cl)cc1 (stereo not drawn) [2-(2-aminoacetylamino)-N-[(2-chlorophenyl)methyl]-4-[N-(4-ethylphenyl)carbamoyloxy]butanamide],5.36
4,CCc1ccc(NC(=O)OCC(C)(NC(=O)[C@@H](N)CO)C(=O)NCc2ccccc2Cl)cc1 (stereo partly drawn) [2-((2S)-2-amino-3-hydroxypropanoylamino)-N-[(2-chlorophenyl)methyl]-3-[N-(4-ethylphenyl)carbamoyloxy]-2-methylpropanamide],4.95
5,CCc1ccc(NC(=O)OC[C@H](C)N(CC(=O)O)C(=O)NCc2ccccc2Cl)cc1 [2-(N-{(1S)-2-[N-(4-ethylphenyl)carbamoyloxy]-isopropyl}{[(2-chlorophenyl)methyl]amino}carbonylamino)acetic acid],5.78
6,CCc1ccc(NC(=O)OCC(C)(NC(C)=O)C(=O)NCc2ccccc2Cl)cc1 (stereo not drawn) [2-(acetylamino)-N-[(2-chlorophenyl)methyl]-3-[N-(4-ethylphenyl)carbamoyloxy]-2-methylpropanamide],5.50
7,CCc1ccc(NC(=O)OCC(NC(C)=O)C(=O)NCc2ccccc2Cl)cc1 (stereo not drawn) [2-(acetylamino)-N-[(2-chlorophenyl)methyl]-3-[N-(4-ethylphenyl)carbamoyloxy]propanamide],4.86
8,CCc1ccc(NC(=O)OCCN(CCCNC(=O)CNC(=O)OC(C)(C)C)C(=O)NCc2ccccc2Cl)cc1 [2-[(tert-butoxy)carbonylamino]-N-[3-({[(2-chlorophenyl)methyl]amino}-N-{2-[N-(4-ethylphenyl)carbamoyloxy]ethyl}carbonylamino)propyl]acetamide],5.39
9,CCc1ccc(NC(=O)OCCN(CCN(C)C(=O)CN)C(=O)NCc2ccccc2Cl)cc1 [2-amino-N-[2-({[(2-chlorophenyl)methyl]amino}-N-{2-[N-(4-ethylphenyl)carbamoyloxy]ethyl}carbonylamino)ethyl]-N-methylacetamide],5.23
10,CCc1ccc(NC(=O)OCCN(CCNC(=O)CN)C(=O)NCc2ccccc2Cl)cc1 [2-amino-N-[2-({[(2-chlorophenyl)methyl]amino}-N-{2-[N-(4-ethylphenyl)carbamoyloxy]ethyl}carbonylamino)ethyl]acetamide],6.05
11,CCc1ccc(NC(=O)OCCN(CCCNC(=O)CN)C(=O)NCc2ccccc2Cl)cc1 [2-amino-N-[3-({[(2-chlorophenyl)methyl]amino}-N-{2-[N-(4-ethylphenyl)carbamoyloxy]ethyl}carbonylamino)propyl]acetamide],6.73
12,CCc1ccc(NC(=O)OCCN(CCCCNC(=O)CN)C(=O)NCc2ccccc2Cl)cc1 [2-amino-N-[4-({[(2-chlorophenyl)methyl]amino}-N-{2-[N-(4-ethylphenyl)carbamoyloxy]ethyl}carbonylamino)butyl]acetamide],6.65
13,CCc1ccc(NC(=O)OCCC(N)C(=O)NCc2ccccc2Cl)cc1 (stereo not drawn) [2-amino-N-[(2-chlorophenyl)methyl]-4-[N-(4-ethylphenyl)carbamoyloxy]butanamide],5.17
14,CN(CCN(CCOC(=O)Nc1ccc(C(F)(F)F)cc1)C(=O)NCc1ccccc1Cl)C(=O)CN [2-amino-N-{2-[{[(2-chlorophenyl)methyl]amino}-N-(2-{N-[4-(trifluoromethyl)phenyl]carbamoyloxy}ethyl)carbonylamino]ethyl}-N-methylacetamide],4.82
15,CCc1ccc(NC(=O)OCC2(C(=O)NCc3ccccc3Cl)CCN(C(=O)OCCN)CC2)cc1 [2-aminoethyl 4-{N-[(2-chlorophenyl)methyl]carbamoyl}-4-{[N-(4-ethylphenyl)carbamoyloxy]methyl}piperidinecarboxylate],6.47
16,CCc1ccc(NC(=O)OCC(C)(NC(=O)CNC(=O)OC(C)(C)C)C(=O)NCc2ccccc2Cl)cc1 (stereo not drawn) [2-{2-[(tert-butoxy)carbonylamino]acetylamino}-N-[(2-chlorophenyl)methyl]-3-[N-(4-ethylphenyl)carbamoyloxy]-2-methylpropanamide],4.71
17,CCc1ccc(NC(=O)CCC2(C(=O)NCc3ccccc3C)CCN(C(=O)CN)CC2)cc1 [3-(1-(2-aminoacetyl)-4-{N-[(2-methylphenyl)methyl]carbamoyl}(4-piperidyl))-N-(4-ethylphenyl)propanamide],4.81
18,CCc1ccc(NC(=O)OCCN(C)C(=O)CCc2ccccc2Cl)cc1 [3-(2-chlorophenyl)-N-{2-[N-(4-ethylphenyl)carbamoyloxy]ethyl}-N-methylpropanamide],6.06
19,CCc1ccc(NC(=O)OCC2(C(=O)NCc3ccccc3Cl)CCN(C(=O)C(N)CC(=O)O)CC2)cc1 (stereo not drawn) [3-amino-4-(4-{N-[(2-chlorophenyl)methyl]carbamoyl}-4-{[N-(4-ethylphenyl)carbamoyloxy]methyl}piperidyl)-4-oxobutanoic acid],5.82
20,CCc1ccc(NC(=O)OCC(C)(CCNC(=O)CN)C(=O)NCc2ccccc2Cl)cc1 (stereo not drawn) [4-(2-aminoacetylamino)-N-[(2-chlorophenyl)methyl]-2-{[N-(4-ethylphenyl)carbamoyloxy]methyl}-2-methylbutanamide],6.55
21,CCc1ccc(NC(=O)OCC(C)(CCNC(C)=O)C(=O)NCc2ccccc2Cl)cc1 (stereo not drawn) [4-(acetylamino)-N-[(2-chlorophenyl)methyl]-2-{[N-(4-ethylphenyl)carbamoyloxy]methyl}-2-methylbutanamide],6.13
22,CCc1ccc(NC(=O)OCC(C)(CCN)C(=O)NCc2ccccc2Cl)cc1 (stereo not drawn) [4-amino-N-[(2-chlorophenyl)methyl]-2-{[N-(4-ethylphenyl)carbamoyloxy]methyl}-2-methylbutanamide],5.76
23,CCc1ccc(NC(=O)OCC(C)(CCNC(=O)CNC(=O)OC(C)(C)C)C(=O)NCc2ccccc2Cl)cc1 (stereo not drawn) [4-{2-[(tert-butoxy)carbonylamino]acetylamino}-N-[(2-chlorophenyl)methyl]-2-{[N-(4-ethylphenyl)carbamoyloxy]methyl}-2-methylbutanamide],5.89
24,"NC(=O)c1ccc(NC(=O)OCC2(C(=O)NCc3ccccc3Cl)CCOCC2)cc1 [4-{[(4-{N-[(2-chlorophenyl)methyl]carbamoyl}-2H-3,4,5,6-tetrahydropyran-4-yl)methoxy]carbonylamino}benzamide]",4.79
25,"CCc1ccc(NC(=O)OCC2(C(=O)NCc3ccccc3Cl)CCN(C(=O)C(N)CN)CC2)cc1 (stereo not drawn) [(1-(2,3-diaminopropanoyl)-4-{[N-(4-ethylphenyl)carbamoyloxy]methyl}(4-piperidyl))-N-[(2-chlorophenyl)methyl]carboxamide]",5.99
26,"CCc1ccc(NC(=O)OCC2(C(=O)NCc3ccccc3Cl)CCN(C(=O)C(O)CO)CC2)cc1 (stereo not drawn) [(1-(2,3-dihydroxypropanoyl)-4-{[N-(4-ethylphenyl)carbamoyloxy]methyl}(4-piperidyl))-N-[(2-chlorophenyl)methyl]carboxamide]",6.91
27,"CCc1ccc(NC(=O)OCC2(C(=O)NCc3ccccc3Cl)CCN(C(=O)C(N)CCN)CC2)cc1 (stereo not drawn) [(1-(2,4-diaminobutanoyl)-4-{[N-(4-ethylphenyl)carbamoyloxy]methyl}(4-piperidyl))-N-[(2-chlorophenyl)methyl]carboxamide]",6.23
28,"CCc1ccc(NC(=O)OCC2(C(=O)NCc3ccccc3Cl)CCN(C(=O)C(N)CCCN)CC2)cc1 (stereo not drawn) [(1-(2,5-diaminopentanoyl)-4-{[N-(4-ethylphenyl)carbamoyloxy]methyl}(4-piperidyl))-N-[(2-chlorophenyl)methyl]carboxamide]",5.83
29,CCc1ccc(NC(=O)OCC2(C(=O)NCc3ccccc3Cl)CCN(C(=O)C(C)(C)N)CC2)cc1 [(1-(2-amino-2-methylpropanoyl)-4-{[N-(4-ethylphenyl)carbamoyloxy]methyl}(4-piperidyl))-N-[(2-chlorophenyl)methyl]carboxamide],6.17
30,CCc1ccc(NC(=O)OCC2(C(=O)NCc3ccccc3Cl)CCN(C(=O)C(N)CC#N)CC2)cc1 (stereo not drawn) [(1-(2-amino-3-cyanopropanoyl)-4-{[N-(4-ethylphenyl)carbamoyloxy]methyl}(4-piperidyl))-N-[(2-chlorophenyl)methyl]carboxamide],6.10
